For one data set, the system named is HCV RNA replicon. The experiment in a line: HCV RNA replicon assay. The class given is cell-based, hepatitis C virus (HCV). Conditions: for Activity (% inhibition virus control) / outcome of primary test: primary, single-dilution test; for EC50: Hepatitis C virus. As for the experimental part: A number of […] 7-deazaneplanocin compounds were tested in vitro to determine activity against hepatitis C virus (HCV).
For orientation: Replicon systems follow genome replication, usually without infectious particles.

Data set [1] is described as follows: cytotoxicity in the HCV RNA replicon assay. Conditions: for Cytotoxicity (% cell control): primary, single-dilution test.
In another data set the test system is SARS virus. The class given is cell-based. Conditions: against SARS virus.
Data set [2] in a line: stability of the isolated compound on standing. Type of data set: physicochemical. Conditions: room temperature, over several days.
Another data set relates to Cowpox. The experiment in a line: microbe, parasite or virus in culture. The class given is cell-based, cowpox virus.
The test system of another data set is Vaccinia. Briefly: microbe, parasite or virus in culture. The class given is cell-based, vaccinia virus.
Another data set concerns HBV strain WT. Briefly: HBV DR Assay, strain WT. Type of data set: cell-based.
The nature of data set [3]: toxicity (CC50) in the anti-HBV test. The class given is cell-based.
The test system of data set [4] is Hepatitis B Virus. The experiment in a line: in vitro anti-HBV activity, VIR (extracellular virion HBV DNA). Conditions: VIR: extracellular virion HBV DNA. Type of data set: cell-based. The method, then:
(§1) In the first biological experiment, a number of 7-deazaneplanocin compounds were tested in vitro to determine activity against hepatitis B virus (HBV).

In data set [5] the test system is Hepatitis B Virus. Briefly: in vitro anti-HBV activity, RI (intracellular HBV DNA replication intermediates). The class given is cell-based. As for the experimental part: as §1
The test system of data set [6] is vacinnia, cowpox and SARS viruses. Type of data set: cell-based.
The next data set relates to cowpox virus. The class given is cell-based. Conditions: against cowpox virus.
For another data set, the system named is vacinnia virus. Type of data set: cell-based. Conditions: against vacinnia virus.
Where [7] appears, read: HT20, HT @ 20 μM, read-out: EC50.

“Also recorded” adds a separate entry of the source. Where two headings read alike, the source gives them in different places.

Consider `Nc1ncnc2c1c(F)cn2[C@@H]1C=C(CO)C(O)C1O` (some centres unmarked), for which, in the data set with HCV RNA replicon, the “Activity (% inhibition virus control)” value turned out to be 9.5% and the “outcome of primary test” value was “Inactive in primary, single-dilution test”. In addition, the “Cytotoxicity (% cell control)” value in data set [1] turned out to be 112.7%.

For the compound `Nc1ncnc2c1c(Cl)cn2[C@@H]1C=C(CO)C(O)C1O` (some centres unmarked), in the data set with HCV RNA replicon (HT @ 100 μM), the 50% effective concentration (EC50) (usually the concentration at which the effect is half-maximal) is 14.7 µM. Also, the “Activity (% inhibition virus control)” value in the data set on HCV RNA replicon was 70.6%. The IC50 – broadly, the concentration at which inhibition is half-maximal – in data set [1] (HT @ 100 μM) was found to be 50.1 µM. Besides, in data set [1], the “Cytotoxicity (% cell control)” value was 81.2%.

`Nc1ncnc2c1c(Br)cn2[C@@H]1C=C(CO)C(O)C1O` (some centres unmarked): the EC50 turned out to be 10.5 µM in the data set on HCV RNA replicon (setting [7]) and 16.7 µM with HCV RNA replicon (HT @ 100 μM, read-out: EC50). Further, in the data set on HCV RNA replicon, the “Activity (% inhibition virus control)” value is on record as 80.9%. For the same compound, the IC50 in data set [1] (HT20, HT @ 20 μM) is over 20 µM; in data set [1] (HT @ 100 μM), 41.7 µM. Moreover, the “Cytotoxicity (% cell control)” value in [1] is given as 76.3%.

Take `Nc1ncnc2c1c(I)cn2[C@@H]1C=C(CO)C(O)C1O` (some centres unmarked): the EC50 in the data set with HCV RNA replicon (HT @ 5 μM, read-out: EC50) is 3.07 µM; in the data set on HCV RNA replicon (HT @ 100 μM, read-out: EC50), 2.14 µM. The “Activity (% inhibition virus control)” value in the data set with HCV RNA replicon is 89.7%. For the same compound, the IC50 in data set [1] (HT @ 5 μM) is over 5 µM; in [1] (HT @ 100 μM), 15 µM. The “Cytotoxicity (% cell control)” value in [1] was 35.2%.

As to `Nc1ncnc2c1c([N+](=O)[O-])cn2[C@@H]1C=C(CO)C(O)C1O` (some centres unmarked), the “Activity (% inhibition virus control)” value in the data set on HCV RNA replicon is listed as 31.5%. In addition, the “Cytotoxicity (% cell control)” value in data set [1] amounted to 101.5%.

With `N#Cc1cn([C@@H]2C=C(CO)C(O)C2O)c2ncnc(N)c12` (some centres unmarked), in the data set on HCV RNA replicon, the “Activity (% inhibition virus control)” value was 0.5% and the “outcome of primary test” value is reported as “Inactive in primary, single-dilution test”. Besides, in [1], the “Cytotoxicity (% cell control)” value is 103.3%.

On to `NC(=O)c1cn([C@@H]2C=C(CO)C(O)C2O)c2ncnc(N)c12` (some centres unmarked), for which the concentration giving a half-maximal response (EC50) in the data set on HCV RNA replicon (HT not given, read-out: EC50) turned out to be 1.85 µM. Moreover, the “Activity (% inhibition virus control)” value in the data set on HCV RNA replicon turned out to be 93.5%. Also, in data set [1] (HT not given), the IC50 was 11.8 µM. Moreover, in data set [1], the “Cytotoxicity (% cell control)” value came out at 44.2%.

Take `C=Cc1cn([C@@H]2C=C(CO)C(O)C2O)c2ncnc(N)c12` (some centres unmarked): the “Activity (% inhibition virus control)” value with HCV RNA replicon is reported as 49.2%. Moreover, the “Cytotoxicity (% cell control)” value in [1] was found to be 99.7%.

As for `Nc1nc2c(ccn2[C@@H]2C=C(CO)C(O)C2O)c(=O)[nH]1` (some centres unmarked), in the data set with HCV RNA replicon, the “Activity (% inhibition virus control)” value is listed as 10.1% and the “outcome of primary test” value was “Inactive in primary, single-dilution test”. Also, the “Cytotoxicity (% cell control)” value in data set [1] came out at 99.8%.

Consider “1-(4,5-Dihydroxy-3-hydroxymethyl-cyclopenten-2-enyl)-1H-[1,2,4]triazole-3-carboxylic acid amide [Compound 17a]”, for which the response in the data set on SARS virus was half-maximal at 21 µM (EC50).

Take “7-Deaza-7-Amino-Neplanocin A [Compound 23]”: the stability entry in [2] is “not stable; also recorded: slowly decomposed in room temperature”.

Consider `Nc1ncnc2c1ccn2[C@@H]1C=C(CO)[C@@H](O)[C@H]1O` [7-deaza neplanocin A], for which the EC90 (as a rule, the concentration needed for an effect of 90%) with Cowpox (Cowpox, HFF cells, CPE reduction assay) amounted to 4.6 µM; in the data set on Vaccinia (Vaccinia, HFF cells, CPE reduction assay) it was 21.5 µM. In addition, the EC50 with Cowpox (Cowpox, HFF cells, CPE reduction assay, read-out: EC50) was 1.2 µM; in the data set with Vaccinia (Vaccinia, HFF cells, CPE reduction assay, read-out: EC50), 3.4 µM. The CC50 (as a rule, the concentration at which the toxic effect on the cells reaches its halfway point) in the data set with HFF cells is over 300 µM. Further, in the data set with HFF cells, the “cytotoxicity (none up to)” value was over 300 µM.

In the data set on HBV strain WT, `CC(C)(C)C(=O)OCOP(=O)(COCCn1cnc2c(N)ncnc21)OCOC(=O)C(C)(C)C` [ADV] gave an EC50 of 1.3 µM and an EC90 of 6 µM.

As to `Nc1ccn(C[C@@H](CO)OCP(=O)(O)O)c(=O)n1` [Cidofovir, reference compound], the EC50 in the data set with Cowpox (Cowpox virus, HFF) amounted to 5 µM; in the data set with Vaccinia (Orthopoxvirus vaccinia, HFF) it was 4 µM.

In the data set on HBV strain WT, `Nc1ccn([C@@H]2CS[C@H](CO)O2)c(=O)n1` [Compound 3TC] displayed an EC50 of 0.2 µM and an EC90 of 0.6 µM.

In the case of `Nc1ncnc2c1c(F)cn2[C@@H]1C=C(CO)[C@@H](O)[C@H]1O` [Compound 10], the CC50 in data set [3] was over 300 µM. In the data set with Hepatitis B Virus [4], this compound came in with an EC50 of over 10 µM and an EC90 of over 10 µM.

As to `Nc1ncnc2c1c(Cl)cn2[C@@H]1C=C(CO)[C@@H](O)[C@H]1O` [Compound 11, 7-Deaza-7-Chloro Neplanocin A], the CC50 in data set [3] was over 300 µM. In the data set with Hepatitis B Virus [4], the EC50 is over 10 µM and the 90% effect concentration (EC90) was over 10 µM.

In turn, `Nc1ncnc2c1c(Br)cn2[C@@H]1C=C(CO)[C@@H](O)[C@H]1O` [Compound 12, 7-Deaza-7-Bromo Neplanocin A] had a cytotoxic concentration (CC50) in data set [3] of over 300 µM. In the data set on Hepatitis B Virus [4], this compound yielded an EC50 of over 10 µM and an EC90 of over 10 µM.

`Nc1ncnc2c1c(I)cn2[C@@H]1C=C(CO)[C@@H](O)[C@H]1O` [Compound 13, 7-Deaza-7-Iodo Neplanocin A] displayed a CC50 in [3] of over 300 µM. The concentration giving a half-maximal response (EC50) in the data set with Hepatitis B Virus [5] worked out at 1.6 µM; in the data set on Hepatitis B Virus [4], 0.431 µM. In addition, the results for the EC90 with Hepatitis B Virus [5] and in the data set on Hepatitis B Virus [4] were 5.9 µM and 1.8 µM, respectively.

As to `N#Cc1cn([C@@H]2C=C(CO)[C@@H](O)[C@H]2O)c2ncnc(N)c12` [Compound 17, 7-Deaza-7-Cyano-Neplanocin A], the CC50 in data set [3] was over 300 µM. In the data set with Hepatitis B Virus [4], this compound had an EC50 of over 10 µM and an EC90 of over 10 µM.

As to `NC(=O)c1cn(C2C=C(CO)C(O)C2O)cn1` (centres unmarked) [Compound 17b, 1-(4,5-Dihydroxy-3-hydroxymethyl-cyclopenten-2-enyl)-1H-imidazole-4-carboxylic acid amide], in data set [6], the antiviral activity result was “did not show any significant antiviral activity”.

As to `NC(=O)c1cn(C2C=C(CO)C(O)C2O)nn1` (centres unmarked) [Compound 17c, 1-(4,5-Dihydroxy-3-hydroxymethyl-cyclopenten-2-enyl)-1H-[1,2,3]triazole-4-carboxylic acid amide], the EC50 with cowpox virus worked out at 39 µM; with SARS virus, 47 µM; with vacinnia virus it was 0.4 µM.

On to `NC(=O)c1cn([C@@H]2C=C(CO)[C@@H](O)[C@H]2O)c2ncnc(N)c12` [Compound 18, 7-Deaza-7-Amido-Neplanocin A], for which, in data set [3], the CC50 was over 300 µM. In the data set with Hepatitis B Virus [4], this compound showed an EC50 of over 10 µM and a concentration for an effect of 90% (EC90) of over 10 µM.

Regarding `Nc1ncnc2c1c([N+](=O)[O-])cn2[C@@H]1C=C(CO)[C@H](O)C1O` (some centres unmarked) [Compound 22, 7—Deaza-7-Nitro-Neplanocin A], the melting point – broadly, the temperature, or range, at which the solid turns liquid – fell in the range of 245 to 246 °C. This compound also displayed a CC50 in data set [3] of over 300 µM. In the data set with Hepatitis B Virus [4] (Hepatitis B virus), the EC50 is over 10 µM and the EC90 is over 10 µM.

The compound `C=Cc1cn([C@@H]2C=C(CO)[C@H](O)C2O)c2ncnc(N)c12` (some centres unmarked) [Compound 25, 7-Deaza-7-Vinyl-Substituted Neplanocin A] displayed a melting point of 168 to 170 °C. The CC50 in data set [3] was over 300 µM. In the data set with Hepatitis B Virus [5] (Hepatitis B virus), this compound gave an EC50 of 10 µM and a concentration for an effect of 90% (EC90) of 26 µM. In addition, in the data set with Hepatitis B Virus [4] (Hepatitis B virus), the EC50 was 3.3 µM and the 90% effect level (EC90) was put at 9.1 µM.

For the compound `C#Cc1cn([C@@H]2C=C(CO)C(O)C2O)c2ncnc(N)c12` (some centres unmarked) [Compound 27, 7-Deaza-7-Acetylene-Neplanocin A], the melting point was 126 to 128 °C. This compound came in with a cytotoxic concentration (CC50) in data set [3] of over 300 µM. Moreover, in the data set on HBV strain WT (Hepatitis B virus), the EC50 was found to be 2.5 µM and the 90% effect level (EC90) was put at 8.7 µM. In the data set with Hepatitis B Virus [5] (Hepatitis B virus), this compound had a concentration for a half-maximal effect (EC50) of 1.8 µM and a 90% effect concentration (EC90) of 7.9 µM. In the data set on Hepatitis B Virus [4] (Hepatitis B virus), the midpoint of the response, the EC50, lay at 0.315 µM and the 90% effect level (EC90) was put at 1.6 µM.

Consider `C#Cc1cn([C@@H]2C=C(CO)C(O)C2O)c2ncnc(N)c12` (some centres unmarked) [drawing 37], for which the EC50 in the data set with HCV RNA replicon (setting [7]) came out at 12.3 µM; in the data set with HCV RNA replicon (HT @ 100 μM, read-out: EC50), 20.1 µM. Further, in the data set with HCV RNA replicon, the “Activity (% inhibition virus control)” value stood at 73.3%. In addition, the IC50 in data set [1] (HT20, HT @ 20 μM) was over 20 µM; in data set [1] (HT @ 100 μM), 48.9 µM. The “Cytotoxicity (% cell control)” value in data set [1] is given as 86.6%.

For the origin of these results see patent US20090270431A1, “Cyclopentenol Nucleoside Compounds Intermediates for their Synthesis and Methods of Treating Viral Infections” (THE UNIVERSITY OF GEORGIA RESEARCH FOUNDATION, priority 2005, published 2009).
